Test results from patent US20230077584A1, “METHODS AND COMPOSITIONS FOR MODULATING ENTEROENDOCRINE CELLS” (Flagship Pioneering Innovations VI, LLC, priority 2021, published 2023).

Key:
[1] = system: mouse intestinal organoids; test: mouse small intestinal organoid differentiation, lineage markers by Q-PCR; assay type: cell-based; conditions: ENR media, Q-PCR after 5 days of treatment, FIG. 2
Source text: Cryopreserved mouse intestinal organoids derived from small intestine were obtained from Stem Cell Technologies. The organoids were thawed and propagated in Intesticult Growth Medium (Mouse) (purchased from Stem Cell Technologies) following the company's instructions. Briefly, ˜100 organoid fragments/well are embedded in Matrigel domes in 24-well plates and growth media is renewed every 2-3 days. The organoids are passaged every 5-6 days in 1:4 ratio. To assess the potential of the predicted perturbations to induce the enteroendocrine cell lineage during organoid differentiation, we established an in vitro assay to induce the various intestinal lineages (enterocytes, goblet cells, Paneth cells, enteroendocrine cells) based on published data (Yin et al, Nat Methods. 2014 January; 11(1):106-12). Briefly, organoid fragments are embedded in Matrigel and grow in custom-made media in the presence of EGF, Noggin, Rspondin (ENR) supplemented with the indicated factors (Table 4) that are known to induce markers of the various intestinal lineages. The expression of markers and the induction of the various cell lineages was assessed by Q-PCRs after 5 days of treatments (FIG. 2). Further characterization of the organoids will be performed by immunofluorescence staining and flow cytometry. […]

[2] = system: mouse intestinal organoids; conditions: ENR media supplemented with factor; based on published data (Yin et al); cited from earlier work

SMILES	expression of chromogranin A and chromogranin B genes, markers of enteroendocrine cells [1]	Cell lineage (factors known to induce markers of intestinal lineages) [2]
C[C@H](NC(=O)Cc1cc(F)cc(F)c1)C(=O)N[C@H](C(=O)OC(C)(C)C)c1ccccc1 [DAPT]	induces the expression of chromogranin A and chromogranin B genes	Enteroendocrine Cells, Paneth
Cc1ccc2nc(NC(=O)CSc3nc4c(c(=O)n3-c3ccccc3)SCC4)sc2c1 [IWP2]		Enterocytes, Enteroendocrine Cells
